The experiment concerns the target T1, xoFabV (Xanthomonas oryzae, UniProt Q2P9J6).
T1 construct: gene fabV
The note with it: weak binding, data not shown; no electron density in co-crystals.

T1 sequence (Q2P9J6 whole entry, looked up): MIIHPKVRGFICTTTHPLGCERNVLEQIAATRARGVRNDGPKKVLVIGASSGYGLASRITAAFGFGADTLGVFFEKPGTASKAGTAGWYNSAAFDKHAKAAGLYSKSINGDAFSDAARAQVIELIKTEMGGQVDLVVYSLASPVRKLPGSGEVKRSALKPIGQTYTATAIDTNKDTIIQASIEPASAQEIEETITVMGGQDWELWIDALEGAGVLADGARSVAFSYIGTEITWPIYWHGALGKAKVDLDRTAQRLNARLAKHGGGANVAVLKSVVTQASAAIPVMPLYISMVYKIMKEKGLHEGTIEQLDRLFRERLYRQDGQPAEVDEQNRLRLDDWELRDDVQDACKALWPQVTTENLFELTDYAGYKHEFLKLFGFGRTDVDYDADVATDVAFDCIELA

`NC(=O)c1ccc[n+]([C@@H]2O[C@H](COP(=O)(O)OP(=O)(O)OC[C@H]3O[C@@H](n4cnc5c(N)ncnc54)[C@H](O)[C@@H]3O)[C@@H](O)[C@H]2O)c1` [NAD^+]: the isothermal titration calorimetry result is “NAD^+ binds weakly to xoFabV according to isothermal titration calorimetry assay (data not shown)”.

The values above are taken from paper PMC3198815 (PLoS ONE, 2011).
